From ChEMBL document CHEMBL1201862, “PubChem BioAssay data set” (2004) come the findings set out here.

Some test systems named below: MDA-N; M14; NCI/ADR-RES; OVCAR-4; DU-145; OVCAR-8; BT-549; UO-31; TK-10; UACC-257; OVCAR-3; HCT-15; SW-620; UACC-62; SK-OV-3; MDA-MB-435; SR; LOX IMVI; HL-60.
Experiment in all cases: growth of human tumour cells (NCI), 48 h

The structures appear in SMILES notation.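 Following 48 hours of exposure in 96-well plates, responses at five concentrations were used to interpolate endpoints linearly. GI50 = concentration required for 50% inhibition of growth.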 The source made the active and inactive calls. Cut-off read from the data, not from the text of the source: active = GI50 up to about 1.1 µM and inactive = higher. Some results are limits rather than exact numbers.

As for `O=[N+]([O-])c1ccc(N/N=C2/CC3=C2CCCCCCCCCC3)c([N+](=O)[O-])c1`, the GI50 with MDA-N, in the assay on M14, with NCI/ADR-RES, in the assay with OVCAR-4, with DU-145 and in the assay on OVCAR-8 was > 100 µM (inactive) each time. Also, the GI50 with BT-549 is > 100 µM (inactive); in the assay on UO-31, > 100 µM (inactive); in the assay with TK-10 it was 94.4 µM (inactive); in the assay on UACC-257, > 100 µM (inactive); with OVCAR-3, > 100 µM (inactive); with HCT-15, above 100 µM. Also, the GI50 with SW-620, in the assay with UACC-62, in the assay with SK-OV-3 and in the assay on MDA-MB-435 was > 100 µM (inactive) throughout.

On to `CCOC(=O)C1=[N+]([O-])OC2=C(O)CCCC21` (stereo not drawn), for which the GI50 in the assay on MDA-N, with M14, in the assay on NCI/ADR-RES, in the assay with OVCAR-4, in the assay on DU-145 and with SR was > 100 µM (inactive) in each case. Further, the GI50 in the assay with OVCAR-8, in the assay on BT-549, in the assay on LOX IMVI, in the assay with UO-31, in the assay on TK-10 and with UACC-257 was > 100 µM (inactive) throughout. Further, the GI50 was > 100 µM (inactive) with OVCAR-3; above 100 µM in the assay with HCT-15; > 100 µM (inactive) in the assay with SW-620; > 100 µM (inactive) in the assay on UACC-62; > 100 µM (inactive) in the assay on SK-OV-3; > 100 µM (inactive) with MDA-MB-435.

As for `CC(=O)C(C(C)=O)[C@H]1OC(C)(C)O[C@H]1[C@H]1COC(C)(C)O1`, the GI50 with MDA-N is 55.3 µM (inactive); with M14, 44.3 µM (inactive); in the assay on NCI/ADR-RES, 28.6 µM (inactive); in the assay with OVCAR-4, 40.6 µM (inactive); with DU-145 it was 42.1 µM (inactive); in the assay with OVCAR-8, 34.7 µM (inactive). Moreover, the GI50 in the assay on BT-549 is 28.4 µM (inactive); in the assay on LOX IMVI, 32.7 µM (inactive); in the assay with UO-31, 49.8 µM (inactive); in the assay on TK-10, > 100 µM (inactive); in the assay with UACC-257, 49.4 µM (inactive); in the assay with OVCAR-3, 28.6 µM (inactive). Moreover, the GI50 with HCT-15 is 29.6 µM; in the assay on SW-620 it was 56.8 µM (inactive); in the assay on UACC-62, 43.2 µM (inactive); in the assay on SK-OV-3, 29.2 µM (inactive); in the assay with MDA-MB-435 it was 27.7 µM (inactive).

Consider `C#C[C@]1(O)CC[C@H]2[C@@H]3CCC4=C/C(=N/OCCN(C)C)CC[C@]4(C)[C@H]3CC[C@@]21C`, for which the GI50 with MDA-N is 11.1 µM (inactive); in the assay on M14 it was 15 µM (inactive); with NCI/ADR-RES it was 41.7 µM (inactive); with OVCAR-4, > 100 µM (inactive); in the assay with DU-145 it was 22.3 µM (inactive); with SR it was 12.1 µM (inactive). In addition, the GI50 with OVCAR-8 is 49.7 µM (inactive); with BT-549 it was 65.9 µM (inactive); in the assay on LOX IMVI it was 37.8 µM (inactive); in the assay on UO-31, 62.5 µM (inactive); in the assay with TK-10, > 100 µM (inactive); with UACC-257, 52.5 µM (inactive). The GI50 in the assay with OVCAR-3 is 22 µM (inactive); in the assay with HCT-15, 36.1 µM; in the assay with SW-620, 28.1 µM (inactive); in the assay with UACC-62, 32.5 µM (inactive); in the assay with SK-OV-3, 40.1 µM (inactive); with MDA-MB-435, 6.7 µM (inactive).

On to `CC1=CC2(C)C=C[C@@H]1C(=O)[C@@]1(C)CC[C@@](O)(C(C)C)[C@H]1CC2`, for which the GI50 is 21.8 µM (inactive) with MDA-N; 19.3 µM (inactive) in the assay with M14; 20.2 µM (inactive) with NCI/ADR-RES; 17.8 µM (inactive) with OVCAR-4; 28.9 µM (inactive) in the assay on DU-145; 17.1 µM (inactive) in the assay with OVCAR-8. The GI50 is 33.8 µM (inactive) in the assay with BT-549; 19.1 µM (inactive) in the assay with LOX IMVI; 17.6 µM (inactive) in the assay on UO-31; 36.6 µM (inactive) with TK-10; 16.4 µM (inactive) in the assay on UACC-257; 16.1 µM (inactive) with OVCAR-3. Moreover, the GI50 in the assay with HCT-15 was 24.2 µM; with SW-620, 18.8 µM (inactive); in the assay with UACC-62, 20.1 µM (inactive); in the assay on SK-OV-3 it was 23.6 µM (inactive); with MDA-MB-435, 20.3 µM (inactive).

Consider `NC(=O)NC(=O)C1CCCCC1C(=O)O` (stereo not drawn), for which the GI50 with MDA-N, with M14, in the assay on NCI/ADR-RES, in the assay on OVCAR-4, with DU-145 and in the assay with HL-60 was > 100 µM (inactive) throughout. Moreover, the GI50 with OVCAR-8, in the assay on BT-549, in the assay with LOX IMVI, in the assay with UO-31, in the assay with TK-10 and with UACC-257 was > 100 µM (inactive) in each case. Besides, the GI50 is > 100 µM (inactive) in the assay on OVCAR-3; above 100 µM with HCT-15; > 100 µM (inactive) with SW-620; > 100 µM (inactive) in the assay with UACC-62; > 100 µM (inactive) with SK-OV-3; > 100 µM (inactive) with MDA-MB-435.

As for `CCC1(C)C=Cc2c(cc(OC)c3c(=O)c4ccccc4n(C)c23)O1` (stereo not drawn), the GI50 was > 10 µM (inactive) in the assay with MDA-N; > 10 µM (inactive) with M14; > 10 µM (inactive) in the assay with NCI/ADR-RES; 9.51 µM (inactive) with OVCAR-4; > 10 µM (inactive) in the assay with DU-145; > 10 µM (inactive) in the assay with OVCAR-8. Also, the GI50 with BT-549 is 5.4 µM (inactive); in the assay on LOX IMVI, > 10 µM (inactive); with UO-31, 1.15 µM (inactive); in the assay with TK-10, > 10 µM (inactive); with UACC-257, > 10 µM (inactive); in the assay with OVCAR-3 it was 9.55 µM (inactive). In addition, the GI50 with HCT-15 was 7.23 µM; in the assay on SW-620 it was > 10 µM (inactive); in the assay with UACC-62 it was 9.98 µM (inactive); in the assay on SK-OV-3, > 10 µM (inactive); in the assay on MDA-MB-435, > 10 µM (inactive).

For the compound `C/C(=N\n1c(Cc2ccccc2)n[nH]c1=O)c1ccccc1`, the GI50 in the assay with MDA-N, in the assay on M14, in the assay with NCI/ADR-RES, in the assay with OVCAR-4, with DU-145 and with HL-60 was > 100 µM (inactive) throughout. Besides, the GI50 in the assay on OVCAR-8, in the assay with BT-549, in the assay with LOX IMVI, in the assay with UO-31, in the assay on TK-10 and in the assay on UACC-257 was > 100 µM (inactive) throughout. Besides, the GI50 was above 100 µM in the assay on HCT-15, > 100 µM (inactive) in the assay on SW-620, > 100 µM (inactive) in the assay on UACC-62 and > 100 µM (inactive) in the assay on MDA-MB-435.

Regarding `Cc1ccc(OCC2CO2)c(Br)c1` (stereo not drawn), the GI50 with MDA-N is 19.5 µM (inactive); with M14, 34.1 µM (inactive); in the assay with NCI/ADR-RES, 15.8 µM (inactive); in the assay on OVCAR-4 it was 14.7 µM (inactive); in the assay with DU-145, 38.4 µM (inactive); with HL-60, 30.1 µM (inactive). In addition, the GI50 in the assay with OVCAR-8 is 7.8 µM (inactive); in the assay on BT-549 it was < 0.01 µM (active); with LOX IMVI, 12.1 µM (inactive); with UO-31, 18.5 µM (inactive); in the assay with TK-10, 30.3 µM (inactive); in the assay on UACC-257, 37.8 µM (inactive). Moreover, the GI50 with OVCAR-3 was 25.1 µM (inactive); in the assay on HCT-15, 14 µM; in the assay with SW-620 it was 12.7 µM (inactive); with UACC-62, 17.7 µM (inactive); in the assay with SK-OV-3, 19.1 µM (inactive); in the assay on MDA-MB-435, 18.7 µM (inactive).

Regarding `C/C(=N\Nc1nc2ccccc2s1)c1cc2ccccc2cn1`, the GI50 in the assay on MDA-N was 8.69 µM (inactive); in the assay on M14 it was 4.01 µM (inactive); in the assay with NCI/ADR-RES it was 3.25 µM (inactive); in the assay with OVCAR-4, 1.75 µM (inactive); in the assay with DU-145, 3.85 µM (inactive); in the assay on SR, 2.41 µM (inactive). Also, the GI50 with OVCAR-8 is 2.84 µM (inactive); with BT-549, 6.05 µM (inactive); in the assay on LOX IMVI, 2.49 µM (inactive); in the assay with UO-31, 1.48 µM (inactive); with TK-10 it was 3.94 µM (inactive); in the assay on UACC-257 it was 3.55 µM (inactive). For the same compound, the GI50 was 1.65 µM (inactive) with OVCAR-3; 0.424 µM in the assay on HCT-15; 3.95 µM (inactive) in the assay on SW-620; 3.51 µM (inactive) in the assay with UACC-62; 3.15 µM (inactive) in the assay on SK-OV-3; 5.24 µM (inactive) in the assay with MDA-MB-435.

For `CC(C)CC1[C@@H](OCc2ccccc2)COS(=O)(=O)N1Cc1ccccc1` (stereo partly drawn), the GI50 is > 10 µM (inactive) in the assay with MDA-N; > 100 µM (inactive) in the assay on M14; 52.6 µM (inactive) in the assay on NCI/ADR-RES; > 100 µM (inactive) with OVCAR-4; > 100 µM (inactive) in the assay with DU-145; 46.2 µM (inactive) in the assay with HL-60. Also, the GI50 is > 100 µM (inactive) in the assay on OVCAR-8; > 100 µM (inactive) in the assay with BT-549; > 100 µM (inactive) with LOX IMVI; 27.2 µM (inactive) with UO-31; > 100 µM (inactive) in the assay on TK-10; > 100 µM (inactive) in the assay with UACC-257. Further, the GI50 with OVCAR-3 was > 100 µM (inactive); with HCT-15 it was 74.5 µM; with SW-620, > 100 µM (inactive); with UACC-62, > 100 µM (inactive); in the assay on SK-OV-3 it was > 100 µM (inactive); in the assay with MDA-MB-435 it was 44.5 µM (inactive).

As to `CC(C)(CO)N1C(=O)c2ccccc2C1(O)c1ccc(Cl)cc1` (stereo not drawn), the GI50 was > 100 µM (inactive) in the assay with MDA-N; > 100 µM (inactive) in the assay with M14; > 100 µM (inactive) in the assay with NCI/ADR-RES; 94 µM (inactive) with OVCAR-4; > 100 µM (inactive) with DU-145; > 100 µM (inactive) in the assay with HL-60. Further, the GI50 in the assay with OVCAR-8 was > 100 µM (inactive); with BT-549, > 100 µM (inactive); in the assay with UO-31, 63.2 µM (inactive); in the assay on TK-10, > 100 µM (inactive); in the assay with UACC-257, > 100 µM (inactive); in the assay on OVCAR-3, 88.7 µM (inactive). Besides, the GI50 in the assay on HCT-15 is above 100 µM; in the assay with SW-620 it was > 100 µM (inactive); with UACC-62, > 100 µM (inactive); in the assay on SK-OV-3 it was > 100 µM (inactive); with MDA-MB-435, > 100 µM (inactive).
